{
  "source": "paper PMC10604444",
  "about": "“Extra-Synaptic GABAA Receptor Potentiation and Neurosteroid-Induced Learning Deficits Are Inhibited by GR3027, a GABAA Modulating Steroid Antagonist” (Biomolecules, 2023)",
  "test_system": "male Wistar rats",
  "test": "Morris water maze (MWM) learning and spatial memory",
  "type": "in vivo, rat",
  "settings": "GR3027 alone 11 mg/kg i.v.",
  "protocol": "Animals: Male Wistar rats were used to study the effect of AP on learning and spatial memory (Scanbur BK, Sweden). The rats were marked on the tail with a permanent spray (Porcimark™) for identification. A 12/12 h light/dark cycle was used (lights off at 18.00 h), food and water were available ad libitum, and the housing room temperature was kept at 22–23 °C. Animal testing was performed during the light part of the day. After arrival at the animal facility, the handling of all rats was performed for two weeks, including habituation to all relevant experimental procedures. […]\nSpatial memory: Spatial memory was assessed using the Morris water maze (MWM), as previously described in detail, and in brief as follows. […] MWM parameters (latency, path, swimming speed, floating, and thigmotaxis) were monitored and quantified using the computer tracking system Menu 2020 (HVS Image, UK). […]\nSubstances and treatments: AP (3α-OH-5α-pregnan-20-one; 2.0 mg/mL; Umecrine AB, Sweden) and GR3027 (3α-ethynyl-3β-hydroxyl-5α-androstan-17-oxime; 2.0 mg/mL; Umecrine Cognition AB, Stockholm, Sweden) were dissolved in 10% 2-hydroxypropyl-beta-cyclodextrin (β-CD; Sigma, St. Louis, MO, USA) using ultrasound. The various combination treatments were then prepared by mixing these solutions in calculated proportions (Table 1). […]",
  "data": [
    {"smiles": "C#C[C@]1(O)CC[C@@]2(C)[C@@H](CC[C@@H]3[C@@H]2CC[C@]2(C)/C(=N/O)CC[C@@H]32)C1", "note": "[GR3027, 3α-ethynyl-3β-hydroxyl-5α-androstan-17-oxime]", "values": [
      {"measurement": "Swim speed vs groups treated with AP or AP:GR3027 combinations", "setting": "p < 0.05", "result": "lower"},
      {"measurement": "Swim speed vs vehicle group", "setting": "p > 0.05", "result": "no different"}
    ]}
  ]
}
